Results taken from patent US20220017484A1, “INHIBITOR OF BRUTON TYROSINE KINASE” (BEIJING RECIPROCAPHARMACEUTICALS CO., LTD., priority 2018, published 2022).

Legend:
Btk [1] = target: T1, Btk (Homo sapiens, UniProt Q06187); test: Analysis of in vitro inhibitory activity of Btk (cell-free TR-FRET kinase assay); format: biochemical; settings: for IC50: cell-free TR-FRET, ATP at Km, 1 h, read-out: Efficacy (Btk IC50); for inhibitory effects against Btk (in words): summary of Table 1 efficacy data
Procedure: In a cell-free kinase assay, the method described below or a similar method was used to determine the half inhibitory concentration (IC50) of the compound of the present invention on Btk.
Btk kinase activity was determined using a time-resolved fluorescence resonance energy transfer (TR-FRET) methodology. Measurements were performed in a reaction volume of 50 μL using 96-well assay plates. […] The reaction was quenched by the addition of 1.2 equivalents of EDTA (relative to divalent cation) in […] of 1× Lance buffer (Perkin-Elmer). Streptavidin-APC (Perkin-Elmer) and Eu-labeled p-Tyr100 antibody (Perkin-Elmer) in 1× Lance buffer were added in a volume of 25 μL to give final concentrations of 100 nM and 2.5 nM, respectively. The mixture was allowed to incubate for 1 h. The TR-FRET signal was measured on a multimode plate reader at an excitation wavelength (λEx) of 330 nm and detection wavelengths (λEm) of 615 and 665 nm. The activity was determined by the ratio of fluorescence at 665 nm to that at 615 nm. For each compound, the enzyme activity was measured in the presence of different concentrations of the compound. Negative control reactions were performed in the absence of inhibitor in replicates of six, and two no-enzyme controls were used to determine baseline fluorescence levels. IC50 was obtained by fitting using the program Batch Ki (Kuzmic, et al. (2000), Anal. Biochem. 286:45-50).
The Example compounds 1-50 of the present invention were synthesized according to the above Synthetic Schemes I to VII. In the analysis of in vitro inhibitory activity of Btk, the IC50 values of the Example compounds 1-50 of the present invention were determined. The IC50 values are given according to the interval of the IC50 value, where “+++” means IC50<100 nM; “++” means 100 nM≤IC50<1000 nM; and “+” means 1000 nM≤IC50<10000 nM.

OCI-LY7 cells = test: Cell viability assay (CellTiter-Glo, 72 h); format: cell-based; settings: Homo sapiens, read-out: Results from inhibition of OCI-LY7 cells (IC50)
Procedure: An in vitro cell viability assay was conducted using the compounds of Examples 1-50 following the steps below:
1. After OCI-LY7 cells were recovered, they were cultured at 37° C., 5% CO2, and 95% humidity.
2. For the compounds of Examples 1-50, 8 compound solutions at different concentrations were prepared, respectively. 50 μL of the compound solution at each concentration was added to a 96-well black plate.
3. The cell concentration was adjusted to about 30,000 cells/mL. 100 μL of cell suspension was added to the 96-well plate, and mixed well. The final cell density was about 3,000 cells/well.
4. The 96-well plate was placed at 37° C., 5% CO2, and 95% humidity for 72 h.
5. The cell survival rate was measured by the method of CellTiter-Glo® Luminescent Cell Viability Assay (Promega, Cat #G7572). The fluorescence data were read on a microplate reader (EnVision™, a multi-function microplate detector, PerkinElmer).
6. The obtained fluorescence data were analyzed using GraphPad Prism software. The cell survival rate was calculated for each example compound at each concentration, and the IC50 interval of each example compound was obtained.

Btk [2] = target: T1, Btk; test: Covalent inhibition assay on BTK (fluorescent probe labeling, SDS-PAGE scanning); format: binding; parameters: purchased carna 08-180; settings: for binding mode to recombinant BTK: 0.5 μM and 5 μM, 1 h incubation; for inhibition of the labeling of BTK by the fluorescent probe: 1 h incubation with BTK, then probe 1 h, 1% DMSO control
Procedure: FIG. 1 is a graph showing the scanning results from SDS-PAGE electrophoresis after the compounds of Examples 23 and 26 at two concentrations (0.5 μM and 5 μM) were incubated with BTK for 1 h, and then a probe prepared according to Sci. Rep. 2015, 5, 16136 was added and incubated for 1 h.
This assay was carried out using the compounds of Examples 23 and 26. The reagents used are as follows:
BTK kinase: brand name: carna, product number: 08-180, concentration: […];
BTK enzyme activity buffer: 1× kinase buffer+1 mM DTT+5 mM MgCl2+50 nM SEB;
BTK probe (100 μM): prepared according to Sci. Rep. 2015, 5, 16136 (Pan Zhengying, et al.);
The compounds of Examples 23 and 26: prepared as described above, and prepared at two concentrations (0.5 μM/5 μM) respectively.
The steps of the assay are as follows:
1. The sample order was 1% DMSO, 0.5 μM compound of Example 23, 5 μM compound of Example 23, 0.5 μM compound of Example 26, and 5 μM compound of Example 26. The compounds, BTK, probe and 2× loading buffer were added to 5 200 μl EP tubes using a pipette.
2. The final concentrations of the compounds of Examples 23 and 26 were 0.5 μM and 5 μM, and the control group was 1% DMSO. The compounds were first prepared with DMSO to 100× the above final concentrations, and diluted ×40 with BTK enzyme activity Buffer. For the reaction, 4 μl/well of the compound was added to the 10 μl system using a pipette to reach its final concentration. For 1% DMSO, the stock solution was diluted ×40 with BTK enzyme activity Buffer.
3. The BTK (200 ng/μl) was diluted to 10 ng/μl, and the probe (100 μM) was diluted to 2.5 μM. They were placed on ice for later use, and the probe was protected from light.
4. To each tube was added 4 μl of BTK, followed by 4 μl of the Example compound. After 1 h incubation, the probe was added, and then incubated for 1 h in the dark.
5. 2× loading buffer was prepared. After the probe was incubated, 10 μl of the 2× loading buffer was added to each well, mixed well, and heated at 100° C. for 10 min to prepare the sample.
6. 10 μl (containing 20 ng of BTK, and 0.5 μM probe) was loaded. Scanning was performed after SDS-PAGE. The order of samples was the order of spotting.
If it is a compound that reversibly binds to BTK, the probe would bind to the released BTK during 1 h incubation with a mixture of the compound and BTK, leading to a fluorescent band.

T1 sequence (Q06187 whole entry): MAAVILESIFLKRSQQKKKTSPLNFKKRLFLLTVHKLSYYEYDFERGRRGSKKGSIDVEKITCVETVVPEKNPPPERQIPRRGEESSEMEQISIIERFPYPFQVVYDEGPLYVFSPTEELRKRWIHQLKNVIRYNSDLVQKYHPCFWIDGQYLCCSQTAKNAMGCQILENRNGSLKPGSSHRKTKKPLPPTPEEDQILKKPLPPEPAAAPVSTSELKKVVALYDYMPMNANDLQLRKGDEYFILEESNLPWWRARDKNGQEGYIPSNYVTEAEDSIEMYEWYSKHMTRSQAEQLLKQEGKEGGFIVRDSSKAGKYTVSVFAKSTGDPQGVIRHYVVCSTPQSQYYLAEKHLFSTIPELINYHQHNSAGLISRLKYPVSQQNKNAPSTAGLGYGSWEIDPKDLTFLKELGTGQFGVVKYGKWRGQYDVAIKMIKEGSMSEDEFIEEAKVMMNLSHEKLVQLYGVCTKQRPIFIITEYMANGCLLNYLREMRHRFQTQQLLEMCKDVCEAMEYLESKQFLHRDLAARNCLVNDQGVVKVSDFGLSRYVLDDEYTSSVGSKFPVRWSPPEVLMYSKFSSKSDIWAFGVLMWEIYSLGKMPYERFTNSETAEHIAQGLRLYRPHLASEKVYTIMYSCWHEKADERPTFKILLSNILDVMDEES

Structure (SMILES) | IC50 (Btk [1]) [nM] | inhibitory effects against Btk (in words) (Btk [1]) | IC50 (OCI-LY7 cells) [nM] | binding mode to recombinant BTK (Btk [2]) | inhibition of the labeling of BTK by the fluorescent probe (Btk [2]; compound 0.5 μM) | inhibition of the labeling of BTK by the fluorescent probe (Btk [2]; compound 5 μM)
C=CC(=O)N(C)c1cccc(Nc2ncc3cc(-c4c(C)cc[nH]c4=O)ccc3n2)c1 [Example 23] | < 100 | particularly excellent inhibitory effects | < 500 | irreversibly covalently binds | completely inhibit | completely inhibit
C=CC(=O)N(CC)c1cccc(Nc2ncc3cc(-c4c(C)cc[nH]c4=O)ccc3n2)c1 [Example 26] | < 100 | particularly excellent inhibitory effects | < 500 | irreversibly covalently binds | completely inhibit | completely inhibit
C=CC(=O)N(c1cccc(Nc2ncc3cc(-c4c(C)cc[nH]c4=O)ccc3n2)c1)C(C)C [Example 27] | < 100 | – | < 500 | – | – | –
C=CC(=O)N(CC)c1cccc(Nc2ncc3cc(-c4c(C)ccn(C(=O)OCC)c4=O)ccc3n2)c1 [Example 28] | < 100 | – | < 500 | – | – | –
C=CC(=O)N(CC)c1cccc(Nc2ncc3cc(-c4c(C)ccn(C(C)=O)c4=O)ccc3n2)c1 [Example 29] | 100 to 1000 | – | 500 to 2500 | – | – | –
C=CC(=O)N(CC)c1cccc(Nc2ncc3cc(-c4c(C)ccn(C(=O)N(C)C)c4=O)ccc3n2)c1 [Example 30] | 100 to 1000 | – | ≥ 2500 | – | – | –
C=CC(=O)N(CC)c1cccc(Nc2ncc3cc(-c4c(C)ccn(C(=O)OCc5ccccc5)c4=O)ccc3n2)c1 [Example 31] | < 100 | – | < 500 | – | – | –
C=CC(=O)N(CC)c1cccc(Nc2ncc3cc(-c4c(C)ccn(-c5ncco5)c4=O)ccc3n2)c1 [Example 32] | 100 to 1000 | – | 500 to 2500 | – | – | –
CC#CC(=O)N(CC)c1cccc(Nc2ncc3cc(-c4c(C)cc[nH]c4=O)ccc3n2)c1 [Example 33] | < 100 | particularly excellent inhibitory effects | < 500 | – | – | –
CCN(C(=O)/C=C/CN(C)C)c1cccc(Nc2ncc3cc(-c4c(C)cc[nH]c4=O)ccc3n2)c1 [Example 34] | < 100 | particularly excellent inhibitory effects | 500 to 2500 | – | – | –
C=C(F)C(=O)N(CC)c1cccc(Nc2ncc3cc(-c4c(C)cc[nH]c4=O)ccc3n2)c1 [Example 35] | < 100 | – | < 500 | – | – | –
C=CC(=O)Nc1cc(Nc2ncc3cc(-c4c(C)cc[nH]c4=O)ccc3n2)ccc1OC [Example 36] | < 100 | – | < 500 | – | – | –
C=CC(=O)N(CC)c1cc(Nc2ncc3cc(-c4c(C)cc[nH]c4=O)ccc3n2)ccc1OC [Example 37] | < 100 | particularly excellent inhibitory effects | < 500 | – | – | –
C=CC(=O)N(CCOC)c1cccc(Nc2ncc3cc(-c4c(C)cc[nH]c4=O)ccc3n2)c1 [Example 38] | < 100 | particularly excellent inhibitory effects | < 500 | – | – | –
C=CC(=O)N(CC)c1cc(Nc2ncc3cc(-c4c(C)cc[nH]c4=O)ccc3n2)ccc1F [Example 39] | < 100 | – | 500 to 2500 | – | – | –
C=CC(=O)N(CC)c1cc(Nc2ncc3cc(-c4c(C)cc[nH]c4=O)ccc3n2)ccc1C [Example 40] | < 100 | – | 500 to 2500 | – | – | –
Cc1cc[nH]c(=O)c1-c1ccc2nc(Nc3ccc4c(c3)NCCO4)ncc2c1 [Example 41] | < 100 | – | < 500 | – | – | –
C=CC(=O)N1CCOc2ccc(Nc3ncc4cc(-c5c(C)cc[nH]c5=O)ccc4n3)cc21 [Example 42] | < 100 | – | 500 to 2500 | – | – | –
C=CC(=O)N(CCN(C)C)c1cccc(Nc2ncc3cc(-c4c(C)cc[nH]c4=O)ccc3n2)c1 [Example 43] | < 100 | – | ≥ 2500 | – | – | –
[2H]C([2H])([2H])N(C(=O)C=C)c1cccc(Nc2ncc3cc(-c4c(C)cc[nH]c4=O)ccc3n2)c1 [Example 44] | < 100 | particularly excellent inhibitory effects | < 500 | – | – | –
[2H]C([2H])=C([2H])C(=O)N(C)c1cccc(Nc2ncc3cc(-c4c(C)cc[nH]c4=O)ccc3n2)c1 [Example 45] | < 100 | particularly excellent inhibitory effects | < 500 | – | – | –
[2H]C([2H])=C([2H])C(=O)N(c1cccc(Nc2ncc3cc(-c4c(C)cc[nH]c4=O)ccc3n2)c1)C([2H])([2H])[2H] [Example 46] | < 100 | particularly excellent inhibitory effects | < 500 | – | – | –
[2H]C([2H])([2H])C([2H])([2H])N(C(=O)C=C)c1cccc(Nc2ncc3cc(-c4c(C)cc[nH]c4=O)ccc3n2)c1 [Example 47] | < 100 | – | < 500 | – | – | –
[2H]C([2H])=C([2H])C(=O)N(CC)c1cccc(Nc2ncc3cc(-c4c(C)cc[nH]c4=O)ccc3n2)c1 [Example 48] | < 100 | – | < 500 | – | – | –
[2H]C([2H])=C([2H])C(=O)N(c1cccc(Nc2ncc3cc(-c4c(C)cc[nH]c4=O)ccc3n2)c1)C([2H])([2H])C([2H])([2H])[2H] [Example 49] | < 100 | – | < 500 | – | – | –
[2H]C([2H])=C([2H])C(=O)N(CCOC)c1cccc(Nc2ncc3cc(-c4c(C)cc[nH]c4=O)ccc3n2)c1 [Example 50] | < 100 | particularly excellent inhibitory effects | < 500 | – | – | –
